Reference: patent US20160158377A1, “BCL-XL Inhibitory Compounds and Antibody Drug Conjugates Including the Same” (AbbVie Inc., priority 2014, published 2016)
Like-named read-outs stand apart in the source and are kept apart here.

What was measured:
[1] = test system: circulating platelets; details: mouse, in vivo
[2] = test system: circulating platelets; experiment: Number of circulating platelets in mice after single intraperitoneal injection; details: for Time after injection at which thrombocytopenia was maximal: following injection of the compounds
[3] = test system: Molt-4 human acute lymphoblastic leukemia cells; experiment: Molt-4 cell viability assay; format: cell-based; details: 10% human serum, 48 hours, CellTiter-Glo, read-out: Molt-4 Viability EC50 (nM, 10% HS)
Procedure: In one exemplary set of conditions, Molt-4 (ATCC, Manassas, Va.) human acute lymphoblastic leukemia cells were plated 12,500 cells per well in 384-well tissue culture plates (Corning, Corning, N.Y.) in a total volume of 25 μL tissue culture medium supplemented with 10% human serum (Sigma-Aldrich, St. Louis, Mo.) and treated with a 3-fold serial dilution of the compounds of interest from 10 μM to 0.0005 μM. Each concentration was tested in duplicate at least 3 separate times. The number of viable cells following 48 hours of compound treatment was determined using the CellTiter-Glo® Luminescent Cell Viability Assay according to the manufacturer's recommendations (Promega Corp., Madison, Wis.). Compounds were tested in the presence of 10% HS.

[4] = molecular target: Bcl-xL (Homo sapiens, UniProt Q07817); experiment: TR-FRET Bcl-xL binding assay (competition with probe F-Bak)
Sequence of Bcl-xL (Q07817 whole entry): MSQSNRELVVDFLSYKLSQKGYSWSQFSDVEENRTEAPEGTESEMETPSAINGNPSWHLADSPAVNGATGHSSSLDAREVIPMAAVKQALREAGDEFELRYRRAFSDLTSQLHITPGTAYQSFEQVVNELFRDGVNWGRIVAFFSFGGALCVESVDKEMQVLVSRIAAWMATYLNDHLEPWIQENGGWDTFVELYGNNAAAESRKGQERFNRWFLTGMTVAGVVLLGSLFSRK
Procedure: For the assay, test compounds were serially diluted in DMSO starting at 50 μM (2× starting concentration; 10% DMSO) and 10 μL transferred into a 384-well plate. 10 μL of a protein/probe/antibody mix was then added to each well at final concentrations listed below:
The samples were then mixed on a shaker for 1 minute and incubated for an additional 2 hours at room temperature. For each assay plate, a probe/antibody and protein/antibody/probe mixture were included as a negative and a positive control, respectively. Fluorescence was measured on the Envision (Perkin Elmer) using a 340/35 nm excitation filter and 520/525 (F-Bak) and 495/510 nm (Tb-labeled anti-his antibody) emission filters. Dissociation constants (Ki) were determined using Wang's equation (Wang, 1995, FEBS Lett. 360:111-114). The TR-FRET assay can be performed in the presence of varying concentrations of human serum (HS) or fetal bovine serum (FBS). Compounds were tested both without HS and in the presence of 1% HS.

[5] = in the presence of 1% human serum (HS), read-out: Bcl-xL Binding Ki (nM, 1% HS)
[6] = without human serum, read-out: Bcl-xL Binding Ki

EC50 [3] [nM]	Ki [4, 5] [nM]	Ki [4, 6] [nM]	Structure (SMILES)	further results
422	0.319	0.044	CNCCOC12CC3(C)CC(C)(CC(Cn4ncc(-c5ccc(-c6ccc7[nH]nc(C(=O)Nc8nc9ccccc9s8)c7c6)nc5C(=O)O)c4C)(C3)C1)C2 [Compound W3.33, 6-[3-(1,3-benzothiazol-2-ylcarbamoyl)-1H-indazol-5-yl]-3-[1-({3,5-dimethyl-7-[2-(methylamino)ethoxy]tricyclo[3.3.1.1^3,7]dec-1-yl}methyl)-5-methyl-1H-pyrazol-4-yl]pyridine-2-carboxylic acid]	
187	0.27	0.041	CNCCOC12CC3(C)CC(C)(CC(Cn4ncc(-c5ccc(-c6ccc7[nH]cc(C(=O)Nc8nc9ccccc9s8)c7c6)nc5C(=O)O)c4C)(C3)C1)C2 [Compound W3.34, 6-[3-(1,3-benzothiazol-2-ylcarbamoyl)-1H-indol-5-yl]-3-[1-({3,5-dimethyl-7-[2-(methylamino)ethoxy]tricyclo[3.3.1.1^3,7]dec-1-yl}methyl)-5-methyl-1H-pyrazol-4-yl]pyridine-2-carboxylic acid]	
658	0.16	0.022	CNCCOC12CC3(C)CC(C)(CC(Cn4ncc(-c5ccc(-c6cnc7[nH]cc(C(=O)Nc8nc9ccccc9s8)c7c6)nc5C(=O)O)c4C)(C3)C1)C2 [Compound W3.35, 6-[3-(1,3-benzothiazol-2-ylcarbamoyl)-1H-pyrrolo[2,3-b]pyridin-5-yl]-3-[1-({3,5-dimethyl-7-[2-(methylamino)ethoxy]tricyclo[3.3.1.1^3,7]dec-1-yl}methyl)-5-methyl-1H-pyrazol-4-yl]pyridine-2-carboxylic acid]	
10.8	0.58	0.03	Cc1c(-c2ccc(-c3ccc4cccc(C(=O)Nc5nc6ccccc6s5)c4c3)nc2C(=O)O)cnn1CC12CC3(C)CC(C)(C1)CC(OCCNCCCO)(C3)C2 [Compound W3.37, 6-[8-(1,3-benzothiazol-2-ylcarbamoyl)naphthalen-2-yl]-3-{1-[(3-{2-[(3-hydroxypropyl)amino]ethoxy}-5,7-dimethyltricyclo[3.3.1.1^3,7]dec-1-yl)methyl]-5-methyl-1H-pyrazol-4-yl}pyridine-2-carboxylic acid]	
37.7	0.44	0.015	CNC(=O)CCNCCOC12CC3(C)CC(C)(CC(Cn4ncc(-c5ccc(N6CCc7cccc(C(=O)Nc8nc9ccccc9s8)c7C6)nc5C(=O)O)c4C)(C3)C1)C2 [Compound W3.39, 6-[8-(1,3-benzothiazol-2-ylcarbamoyl)-3,4-dihydroisoquinolin-2(1H)-yl]-3-(1-{[3,5-dimethyl-7-(2-{[3-(methylamino)-3-oxopropyl]amino}ethoxy)tricyclo[3.3.1.1^3,7]dec-1-yl]methyl}-5-methyl-1H-pyrazol-4-yl)pyridine-2-carboxylic acid]	

The remaining lines, values behind:

Structure (SMILES)	EC50 [3] [nM]	Ki [4, 5] [nM]	Ki [4, 6] [nM]	further results
CC1(C)CCC(c2ccc(Cl)cc2)=C(CN2CCN(c3ccc(C(=O)NS(=O)(=O)c4ccc(N[C@H](CCN5CCOCC5)CSc5ccccc5)c(S(=O)(=O)C(F)(F)F)c4)cc3)CC2)C1 [ABT-263, Navitoclax]				Time after injection at which thrombocytopenia was maximal [1]: 6 h; Time to lowest count ([1]; 100 mg/kg): 6 h
Cc1c(-c2ccc(N3CCc4cccc(C(=O)Nc5nc6ccccc6s5)c4C3)nc2C(=O)O)cnn1CC12CC3CC(CC(C3)C1)C2 [Compound A-1331852]				Time to lowest count ([2]; dose 25 mg/kg): 6 h; Time after injection at which thrombocytopenia was maximal [2]: 6 h
CNCCOC12CC3(C)CC(C)(CC(Cn4ncc(-c5ccc(-c6cc7cccc(C(=O)Nc8nc9ccccc9s8)c7[nH]6)nc5C(=O)O)c4C)(C3)C1)C2 [Compound W3.27, 6-[7-(1,3-benzothiazol-2-ylcarbamoyl)-1H-indol-2-yl]-3-[1-({3,5-dimethyl-7-[2-(methylamino)ethoxy]tricyclo[3.3.1.1^3,7]dec-1-yl}methyl)-5-methyl-1H-pyrazol-4-yl]pyridine-2-carboxylic acid]	3.95	0.12		
Cc1c(-c2ccc(-c3cc4cccc(C(=O)Nc5nc6ccccc6s5)c4[nH]3)nc2C(=O)O)cnn1CC12CC3(C)CC(C)(C1)CC(OCCN)(C3)C2 [Compound W3.28, 3-(1-{[3-(2-aminoethoxy)-5,7-dimethyltricyclo[3.3.1.1^3,7]dec-1-yl]methyl}-5-methyl-1H-pyrazol-4-yl)-6-[7-(1,3-benzothiazol-2-ylcarbamoyl)-1H-indol-2-yl]pyridine-2-carboxylic acid]	8.38	0.17	< 0.01	
CNCCOC12CC3(C)CC(C)(CC(Cn4ncc(-c5ccc(-c6[nH]c7c(C(=O)Nc8nc9ccccc9s8)cccc7c6C)nc5C(=O)O)c4C)(C3)C1)C2 [Compound W3.29, 6-[7-(1,3-benzothiazol-2-ylcarbamoyl)-3-methyl-1H-indol-2-yl]-3-[1-({3,5-dimethyl-7-[2-(methylamino)ethoxy]tricyclo[3.3.1.1^3,7]dec-1-yl}methyl)-5-methyl-1H-pyrazol-4-yl]pyridine-2-carboxylic acid]	185	0.09	< 0.01	
Cc1c(-c2ccc(N3CCc4cccc(C(=O)Nc5nc6ccccc6s5)c4C3)nc2C(=O)O)cnn1CC12CC3(C)CC(C)(C1)CC(OCCNC1CCN(S(C)(=O)=O)CC1)(C3)C2 [Compound W3.30, 6-[8-(1,3-benzothiazol-2-ylcarbamoyl)-3,4-dihydroisoquinolin-2(1H)-yl]-3-(1-{[3,5-dimethyl-7-(2-{[1-(methylsulfonyl)piperidin-4-yl]amino}ethoxy)tricyclo[3.3.1.1^3,7]dec-1-yl]methyl}-5-methyl-1H-pyrazol-4-yl)pyridine-2-carboxylic acid]	16.3	0.891	0.011	
Cc1c(-c2ccc(N3CCc4cccc(C(=O)Nc5nc6ccccc6s5)c4C3)nc2C(=O)O)cnn1CC12CC3(C)CC(C)(C1)CC(OCCNC1CN(S(C)(=O)=O)C1)(C3)C2 [Compound W3.31, 6-[8-(1,3-benzothiazol-2-ylcarbamoyl)-3,4-dihydroisoquinolin-2(1H)-yl]-3-(1-{[3,5-dimethyl-7-(2-{[1-(methylsulfonyl)azetidin-3-yl]amino}ethoxy)tricyclo[3.3.1.1^3,7]dec-1-yl]methyl}-5-methyl-1H-pyrazol-4-yl)pyridine-2-carboxylic acid]	14.4	0.684	0.012	
Cc1c(-c2ccc(N3CCc4cccc(C(=O)Nc5nc6ccccc6s5)c4C3)nc2C(=O)O)cnn1CC12CC3(C)CC(C)(C1)CC(OCCNCCC(N)=O)(C3)C2 [Compound W3.32, 3-{1-[(3-{2-[(3-amino-3-oxopropyl)amino]ethoxy}-5,7-dimethyltricyclo[3.3.1.1^3,7]dec-1-yl)methyl]-5-methyl-1H-pyrazol-4-yl}-6-[8-(1,3-benzothiazol-2-ylcarbamoyl)-3,4-dihydroisoquinolin-2(1H)-yl]pyridine-2-carboxylic acid]	108	0.365	< 0.01	
CNCCOC12CC3(C)CC(C)(CC(Cn4ncc(-c5ccc(N6CCc7cccc(C(=O)Nc8nc9ccccc9s8)c7C6)nc5C(=O)O)c4C)(C3)C1)C2 [Example 2.32.24, 6-[8-(1,3-benzothiazol-2-ylcarbamoyl)-3,4-dihydroisoquinolin-2(1H)-yl]-3-[1-({3,5-dimethyl-7-[2-(methylamino)ethoxy]tricyclo[3.3.1.1^3,7]dec-1-yl}methyl)-5-methyl-1H-pyrazol-4-yl]pyridine-2-carboxylic acid]				Platelet number after dosing ([2]; dose 0.61 mg/kg): 6*10^3 /mm^3; Time to lowest count ([2]; dose 0.61 mg/kg): 6 h; Decrease of the platelet number ([2]; dose 0.61 mg/kg, from normal count of approximately 6*10^5/mm^3): 100 fold; Time after injection at which thrombocytopenia was maximal [2]: 6 h
